According to patent US7892350B2, “Sacrificial agents for fly ash concrete” (Boral Material Technologies Inc., priority 2003, dated 2011):

Experiments:
[1] = Air entrainment in fresh concrete (ASTM C 231-97)
Experimental: The sacrificial agents were added to the cementitious mixtures in several ways: • 1) mixing together with water and air entrainment agent solution • 2) premixed with the fly ash • 3) post-added into the fresh concrete which already contained the air entrainment agent.

[2] = Paste air entrainment, Maximum air protocol
Outline: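 Pastes of 400 g cementitious powder in water plus additives, hand-mixed 1 min then mixer-stirred 2 min at 25 °C; water/binder ratio set so additive-free paste gives 115±5 mm mini-slump spread at 10 min. Air content calculated from mass of paste filling a fixed-volume cylinder at 6, 36 and 66 min, paste at rest between readings and hand-stirred 1 min beforehand.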

[3] = Paste air entrainment, Minimum air protocol
Experimental: Preparation of pastes: Pastes were prepared by pouring 400 g of cementitious powder in the 350-400 g of solution (water and additives) in a vessel (8.4 cm dia,×14.5 cm height) while gently stirring with a spatula; the exact quantity of water depends on the selected W/B ratio (see below); rapid hand mixing was continued for 1 minute, followed by intense stirring at 25° C. during 2 min using a hand-held mixer (BRAUN model MR400). The level of air entrained is dependent on the mode of utilisation of the mixer, namely the height of the mixer from the bottom of the vessel and the length of the mixing stroke; the following protocols were adopted.
Minimum air protocol: The BRAUN mixer is positioned at 1.0 inch from the bottom of the mixing vessel and the up-down motion of the mixer is limited to a 1.0 inch displacement; this provided ‘minimum air’ entrained air levels and is later referred to as ‘Minimum air protocol’ (Results reported in Table 6, col. 1 and Table 7).
Fluidity measurements: For all air entrainment measurements, the initial fluidity of the paste (without additives) was controlled using the ‘mini-slump’ procedure widely used for paste and grouts. In this protocol, a portion of the paste was transferred into the min-slump cone (a 2¼″ high, 1½″ bottom diameter, ¾″ top diameter cone); excess paste was skimmed-off with a straight; the cone was then raised and the spread diameter of the paste was recorded (average of two measurements). The fluidity is measured at 10 minutes after mixing. The paste is returned to the batch and reserved for subsequent AE measurements. The fluidity of the paste (without SA and AEA) is adjusted by changing the amount of water (water/cementitious ratio) which yields a spread diameter of 115±5 mm. The latter is monitored regularly.
Air entrainment measurements: For air entrainment measurements, a portion of the paste was transferred to overfill a Plexiglas cylinder (3¾ inches height, 2 inches interior diameter), which was then levelled flush to the top of the cylinder with a straight edge. The mass of the filled cylinder, minus the weight of the empty cylinder, is then recorded and used to calculate the amount of air according to the following formula: […]
This procedure was carried out at three times at 30 min. intervals (6, 36 and 66 min); the paste was let to stand at rest between measurements, and was stirred gently by hand for one minute prior to the subsequent air entrainment measurements.
Typical mixture compositions for air entrainment measurements in pastes containing a single additive using ‘Minimum air protocol’ (results shown in Table 6, col. 1): […]

[4] = Precipitation in slurry extract or leachate; type: physicochemical; conditions: pH 12.5, entries in parentheses
[5] = Adsorption/precipitation of SA or AEA in 10 wt % aqueous fly ash or cement slurries at pH 12.5; type: physicochemical; conditions: initial SA 3 mM

With OCCOc1ccccc1 [EGPE, Ethylene glycol phenyl ether] the Air ([1]; 25% B1 fly ash (LOI 1.9%):PCA concrete, Air 40 0.003 % CM + EGPE 0.100 % CM) was 5.1%, the Air ([1]; 25% B1 fly ash (LOI 1.9%):PCA concrete, Air 40 0.006 % CM + EGPE 0.100 % CM) was 6.2% and the Air ([1]; 25% B1 fly ash (LOI 1.9%):PCA concrete, Air 40 0.009 % CM + EGPE 0.100 % CM) was 7.4%. It also gave an Air ([1]; Air 30 0.006 % CM, EGPE 0.100 % CM added during batching, PCA cement, B1 fly ash 25 %, LOI […]) of 11.4%, an Air ([1]; Air 30 0.006 % CM, EGPE 0.100 % CM premixed with fly ash, PCA cement, B1 fly ash 25 %, LOI […]) of 10.0% and an Air ([1]; Air 40 0.003 % CM, EGPE 0.100 % CM added during batching, PCA cement, B1 fly ash 25 %, LOI […]) of 2.7%. The Air ([1]; Air 40 0.003 % CM, EGPE 0.100 % CM premixed with fly ash, PCA cement, B1 fly ash 25 %, LOI […]) was 2.9%, the Air ([1]; Air 40 0.008 % CM, EGPE 0.100 % CM added during batching, PCA cement, B1 fly ash 25 %, LOI […]) was 4.9% and the Air ([1]; Air 40 0.008 % CM, EGPE 0.100 % CM premixed with fly ash, PCA cement, B1 fly ash 25 %, LOI […]) was 4.7%. The “% air, levelling-off” value ([1]; B1 fly ash ([…] LOI):PCA concrete, Air 40 0.003 wt %, increasing dosages of EGPE) was 6-8 vol %, the “% air” value ([1]; B1 fly ash ([…] LOI):PCA concrete, EGPE 0.1 wt % with increasing Air 40 dosage) was “approx 5%” and the Air ([1]; PCA cement concrete, no fly ash, Air 40 0.003 % CM + EGPE 0.050 % CM) was 6.5%. For the same molecule, the Air ([1]; PCA cement concrete, no fly ash, Air 40 0.003 % CM + EGPE 0.100 % CM) was 6.5%, the Air ([1]; PCA cement concrete, no fly ash, Air 40 0.003 % CM + EGPE 0.200 % CM) was 6.2% and the Air ([1]; PCA cement concrete, no fly ash, Air 40 0.006 % CM + EGPE 0.050 % CM) was 8.1%. For the same molecule, the Air ([1]; PCA cement concrete, no fly ash, Air 40 0.006 % CM + EGPE 0.100 % CM) was 8.3%, the Air ([1]; PCA cement concrete, no fly ash, Air 40 0.006 % CM + EGPE 0.200 % CM) was 8.0% and the Air ([1]; PCC cement concrete, no fly ash, no Air 40, EGPE alone 0.010 % CM) was 1.9%. The Air ([1]; PCC cement concrete, no fly ash, no Air 40, EGPE alone 0.030 % CM) was 2.0%, the Air ([1]; PCC cement concrete, no fly ash, no Air 40, EGPE alone 0.050 % CM) was 2.0% and the Air ([1]; PCC cement concrete, no fly ash, no Air 40, EGPE alone 0.100 % CM) was 2.1%. For the same molecule, the “increase in air entrained above the control values” ([1]; cement-only concrete without air entrainment agents, various dosages) was “about 1%”, the “Air entrained at 66 min” value ([2]; 50:50 fly ash B1 (LOI 4.36%):PCA paste, Air 30 (0.0125%)/NS/X=1/4/4, X = the labelled SA) was 4 vol % and the “Air entrained at 66 min” value ([2]; 50:50 fly ash B1 (LOI 4.36%):PCA paste, Air 30 (0.0125 wt %)/ND/X=1/4/4, X = the labelled SA) was 14 vol %. For the same molecule, the “Air entrained at 66 min” value ([2]; 50:50 fly ash C1 (LOI 1.62%):PCA paste, Air 30 (0.0125%)/NS/X=1/4/4, X = the labelled SA) was 9 vol %, the “Air entrained at 66 min” value ([2]; 50:50 fly ash C1 (LOI 1.62%):PCA paste, Air 30 (0.0125 wt %)/ND/X=1/4/4, X = the labelled SA) was 19 vol % and the “Air entrained at 66 min” value ([2]; 50:50 fly ash D (LOI […]):PCA paste, Air 30 (0.0125%)/NS/X=1/4/4, X = the labelled SA) was 15 vol %. For the same molecule, the “Air entrained at 66 min” value ([2]; 50:50 fly ash D (LOI […]):PCA paste, Air 30 (0.0125 wt %)/ND/X=1/4/4, X = the labelled SA) was 22 vol %, the “Air entrained at 66 min” value ([2]; 50:50 fly ash M1 (LOI […]):PCA paste, Air 30 (0.0125%)/NS/X=1/4/4, X = the labelled SA) was 11 vol % and the “Air entrained at 66 min” value ([2]; 50:50 fly ash M1 (LOI […]):PCA paste, Air 30 (0.0125 wt %)/ND/X=1/4/4, X = the labelled SA) was 18 vol %. For the same molecule, the “Air entrained at 66 min” value ([2]; 50:50 fly ash M2 (LOI 5.34%):PCA paste, Air 30 (0.0125%)/NS/X=1/4/4, X = the labelled SA) was 3 vol %, the “Air entrained at 66 min” value ([2]; 50:50 fly ash M2 (LOI 5.34%):PCA paste, Air 30 (0.0125 wt %)/ND/X=1/4/4, X = the labelled SA) was 11 vol % and the “Air entrained at 66 min” value ([2]; 50:50 fly ash M3 (LOI 11.33%):PCA paste, Air 30 (0.0125%)/NS/X=1/4/4, X = the labelled SA) was 3 vol %. The “Air entrained at 66 min” value ([2]; 50:50 fly ash M3 (LOI 11.33%):PCA paste, Air 30 (0.0125 wt %)/ND/X=1/4/4, X = the labelled SA) was 13 vol %, the “Air entrained at 66 min” value ([2]; 50:50 fly ash R (LOI […]):PCA paste, Air 30 (0.0125%)/NS/X=1/4/4, X = the labelled SA) was 11 vol % and the “Air entrained at 66 min” value ([2]; 50:50 fly ash R (LOI […]):PCA paste, Air 30 (0.0125 wt %)/ND/X=1/4/4, X = the labelled SA) was 18 vol %. The Air entrained ([2]; PCA cement paste, 0.0125% SA or AEA alone, Maximum air protocol) was 1 vol %, the “Air entrained at 66 min” value ([2]; PCA paste, no fly ash, Air 30 (0.0125 wt %)/ND/X=1/4/4, X = the labelled SA) was 23 vol % and the “air entrained (average)” value ([2]; fly ash:cement pastes, SA added at four (4) times the fixed Air 30 dosage (0.0125%)) was 7%. The “Average of air entrained at 66 min” value ([2]; over the fly ash:PCA pastes of Table 9, Air 30 (0.0125 wt %)/ND/X=1/4/4, X = the labelled SA) was 17%, the Air entrained ([3]; 50:50 fly ash B1 (LOI 4.36%):PCA paste, 0.1 wt % Air 30 alone or with 0.05 wt % of the SA) was 4 vol % and the Air entrained ([3]; 50:50 fly ash C1 (LOI 1.62%):PCA paste, 0.1 wt % Air 30 alone or with 0.05 wt % of the SA) was 5 vol %. It also gave an Air entrained ([3]; 50:50 fly ash D (LOI […]):PCA paste, 0.1 wt % Air 30 alone or with 0.05 wt % of the SA) of 5 vol %, an Air entrained ([3]; 50:50 fly ash M1 (LOI […]):PCA paste, 0.1 wt % Air 30 alone or with 0.05 wt % of the SA) of 5 vol % and an Air entrained ([3]; 50:50 fly ash M2 (LOI 5.34%):PCA paste, 0.1 wt % Air 30 alone or with 0.05 wt % of the SA) of 4 vol %. The Air entrained ([3]; 50:50 fly ash M3 (LOI 11.33%):PCA paste, 0.1 wt % Air 30 alone or with 0.05 wt % of the SA) was 4 vol %, the Air entrained ([3]; 50:50 fly ash R (LOI […]):PCA paste, 0.1 wt % Air 30 alone or with 0.05 wt % of the SA) was 5 vol % and the Air entrained ([3]; PCA cement paste, 0.1% SA or AEA alone, Minimum air protocol) was 0 vol %. The “Average of air entrained” value ([3]; over the fly ash:PCA pastes of Table 7, 0.1 wt % Air 30 alone or with 0.05 wt % of the SA) was 4%, the “Precipitation (wt % precipitated)” value ([4]; solution extracted from 10 wt % fly ash B1 (LOI 4.36%) slurry) was 0 wt % and the “Precipitation (wt % precipitated)” value ([4]; solution extracted from 10 wt % fly ash C1, class C (LOI 1.62%) slurry) was 0 wt %. For the same molecule, the “Precipitation (wt % precipitated)” value ([4]; solution extracted from 10 wt % fly ash C2 (LOI 3.32%) slurry) was 0 wt %, the “Precipitation (wt % precipitated)” value ([4]; solution extracted from 10 wt % fly ash M1 (LOI […]) slurry) was 1 wt % and the “Precipitation (wt % precipitated)” value ([4]; solution extracted from 10 wt % fly ash M2 (LOI 5.34%) slurry) was 0 wt %. The “Precipitation (wt % precipitated)” value ([4]; solution extracted from 10 wt % fly ash M3 (LOI 11.33%) slurry) was 0 wt %, the “Precipitation (wt % precipitated)” value ([4]; solution extracted from 10 wt % fly ash N (LOI 0.30%) slurry) was 0 wt % and the “Adsorption (wt % Adsorbed)” value ([5]; 10 wt % fly ash B1 (LOI 4.36%) slurry, Air 30/Air 40 0.105 wt %) was 12 wt %. For the same molecule, the “Adsorption (wt % Adsorbed)” value ([5]; 10 wt % fly ash C1, class C (LOI 1.62%) slurry, Air 30/Air 40 0.105 wt %) was 12 wt %, the “Adsorption (wt % Adsorbed)” value ([5]; 10 wt % fly ash C2 (LOI 3.32%) slurry) was 6 wt % and the “Adsorption (wt % Adsorbed)” value ([5]; 10 wt % fly ash M1 (LOI […]) slurry, Air 30/Air 40 0.105 wt %) was 4 wt %. For the same molecule, the “Adsorption (wt % Adsorbed)” value ([5]; 10 wt % fly ash M2 (LOI 5.34%) slurry, Air 30/Air 40 0.105 wt %) was 14 wt %, the “Adsorption (wt % Adsorbed)” value ([5]; 10 wt % fly ash M3 (LOI 11.33%) slurry, Air 30/Air 40 0.105 wt %) was 14 wt % and the “Adsorption (wt % Adsorbed)” value ([5]; 10 wt % fly ash N (LOI 0.30%) slurry) was 1 wt %.
